The test system of assay [1] is tau-tau binding. Briefly: Solid-phase tau-tau binding assay, tau Preparation 1 (WO96/30766). The format is biochemical, human. The text has this: This point was further examined by studying the potency of typical aggregated tau ligands as tau-aggregation inhibitors. It has been shown previously that tau aggregation inhibitors (e.g. diaminophenothiazines) can be identified on the basis of inhibition of tau-tau binding in a solid-phase assay (WO 96/30766). […] Thus, although these compounds are potent ligands for tau within the PHF-core, they are at most weak inhibitors at the site required for inhibition of tau-tau binding.
Large-scale purification (1 liter bacterial culture) of tau fragments was carried out as described by Goedert and Jakes (1990, EMBO J., 9, 4225-4230), with minor modifications. Cells were disrupted by rapid freezing of the cell pellet in liquid nitrogen. The pellets were then suspended in buffer containing 50 mM PIPES, 1 mM dithiothreitol (DTT) (pH 6.8). The thermostable proteins in the supernatant were dialysed against PIPES/DTT, then applied to a column containing phosphocellulose equilibrated in the same buffer. […] Fractions were analysed by SDS-PAGE and both Coomassie staining and immunoblotting. […] Protein concentrations were measured by the Lowry method (Harrington C R (1990), “Lowry protein assay containing sodium dodecyl sulphate in microtitre plates for protein determinations on fractions from brain tissue”, Analytical Biochemistry 186: 285-287).

Assay [2] deals with T1, tau-tau binding (Homo sapiens, UniProt P10636).
T1 construct: a truncated tau protein corresponding to the core fragment and terminating at Ala390-dGA; dGAE which terminates at Glu-391; made in house; host or cells: E. coli BL21 (DE3), pRK172; DE52 flow-through, P11 phosphocellulose, PEG concentration, no heat step (Preparation 2)
T1 sequence (P10636 614-708 limits assumed): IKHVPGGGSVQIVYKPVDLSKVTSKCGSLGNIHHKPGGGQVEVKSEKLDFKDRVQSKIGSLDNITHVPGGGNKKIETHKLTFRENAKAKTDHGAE
Briefly: Solid-phase tau-tau binding assay (dGA solid phase, dGAE liquid phase), tau Preparation 2. It counts as biochemical. Conditions: Preparation 2. The method, then:
Preparation 2 differs from Preparation 1 above in the following respects: (1) The concentration of cells at the sonication stage is increased by 5-fold. (2) A batchwise adsorption of non-tau proteins to DE52 is included. (3) The proteins are not subjected to heat treatment. (4) The final step involves concentration using polyethylene glycol.
Escherichia coli is grown in 2×TY medium (Oxoid) supplemented with ampicillin (50 micrograms per ml) to late-logarithmic phase. Cells from 5 liters of culture are harvested by centrifugation and the cell pellets frozen rapidly over liquid nitrogen. The pellets are taken up with 50 mM PIPES (pH 6.8) containing 1 mM EDTA, 1 mM dithiothreitol and 1 mM phenylmethylsulphonylfluoride (PMSF) and bacteria lysed by sonication (2×3 min) at 4 C. The mixture is centrifuged at 10,000 rpm for 20 min. The supernatant is rotated with 1 gram of Whatman DE52 for 3 hr at 4 C. The mixture is separated on a column and the flow-through material that fails to bind to DE52 is incubated for 3 hr at 4 C, with rotation, with 0.4 g of Whatman P11 (freshly regenerated according to manufacturer's recommendations). The column is washed with column buffer (50 mM PIPES, pH 6.8 containing 1 mM EGTA, 5 mM EDTA, 0.2 mM MgCl2, 5 mM β-mercaptoethanol and 1 mM PMSF). Tau protein is eluted stepwise with a 0.1 to 1 M gradient of KCl in column buffer. Fractions containing tau (determined by immunoassay) are pooled and dialysed against 80 mM PIPES (pH6.8) containing 1 mM EGTA, 1 mM MgCl2 and 5 mM β-mercatoethanol, using dialysis tubing with a molecular weight cut-off of 1,000. The dialysate is concentrated by applying polyethylene glycol 8000 to the outside of the sac for 2-3 hr. The final concentration of tau ranged from 3 to 10 mg per ml.
When the proteins dGA and dGAE were prepared as indicated above (“Preparation 2”), the properties of the tau-tau binding assay were altered relative to the properties obtained using the preparative method described in WO96/30766 (“Preparation 1”).
The assay is performed using 96 well PVC plates (Falcon Cat. No. 353912 are used), and the following steps:
1. 50 μl dGA (˜10 μg/ml) in carbonate buffer, incubate 1 h at 37° C.
(Carbonate buffer: 50 mM carbonate bicarbonate, pH 9.6 (Na2CO3 1.59 g/l, NaHCO3 2.93 g/l))
2. Wash plate in 0.05% Tween-20.
3. 200 μl PBS+2% Marvel, incubate 1 h at 37° C.
4. Rinse plate 2× in deionised water, then wash in 0.05% Tween-20.
5. 50 μl dGAE (˜10 μg/ml) plus drug in PBS+1% fish skin gelatin+0.05% Tween-20, incubate 1 h at 37° C.
6. Wash plate in 0.05% Tween-20.
7. 50 μl antibody 423 (1:10 dilution in PBS+2% Marvel), incubate 1 h at 37° C.
8. Rinse plate 2× in deionised water, then wash in 0.05% Tween-20.
9. 50 μl HRP-anti-mouse (1:1000 dilution in PBS+0.05% Tween-20), incubate 1 h at 37° C.
10. Wash plate in 0.05% Tween-20, then rinse 1× with deionised water.
11. 50 μl substrate solution, read immediately initial rate over 2 min in plate reader at OD650.
(Substrate solution: 50 mM sodium acetate, pH 5.0+TMB (1 ml/100 ml of a 10 mg/ml solution in DMSO)+H2O2 (10 μl/100 ml)).

This is an account of results in patent US8097615B2, “Neurofibrillary labels” (Wista Laboratories Ltd., priority 2001, dated 2012).

Molecules are shown by their SMILES.

In the case of `Cc1ccc2sc(-c3ccc4sc(-c5ccc(N)cc5)nc4c3)nc2c1S(=O)(=O)[O-].[Na+]` [primulin], the “inhibition of tau-tau binding” value is reported as “weak inhibitors of tau-tau binding” in the assay on tau-tau binding [1] and “no inhibitory activity” at tau-tau binding [2].
